Laboratory results published in patent US20100143265A1, “SYSTEM AND METHOD FOR THE DELIVERY OF A SANITIZING FOAM” (GREEN SOURCE AUTOMATED, LLC, priority 2008, published 2010).

Experiment: Gas solubility in water / dip solution
Format: physicochemical
Conditions: standard room temperature and 100 psi pressure
Method: Carbon dioxide (CO2) is soluble in water up to 1.45 g/L at 25° C. and 100 kPa. The amount of CO2 that can be dissolved into the dip solution is dependent on the temperature and pressure of the solution. The lower the temperature of the solution the less pressure that is required to saturate the solution with CO2. Conversely, the higher the temperature of the dip solution the more pressure that is required to saturate the solution with CO2.
The system (FIG. 3) was used with nitrous oxide as the propellant/diffusion gas. In an embodiment of the invention, nitrous oxide (N2O) can be used as a propellant/diffusion. N2O is partially soluble in water, but is almost completely soluble in fats and oils (the skin conditioner provided in the cow dip). Under standard room temperature and 100 psi pressure, approximately four volumes of N2O can be dissolved in one volume of the dip solution. The resulting nitrous oxide foam expands to approximately 6 mm in diameter, where the individual bubbles in the foam vary in size from approximately 1 micron to approximately 10 microns. After coalescing, the remaining liquid dries on the teat. It is noted that the amount of N2O that can be dissolved in one volume of dip solution will increase if more conditioners (containing one or more of fats, oils, fatty acids and triglycerides) are used since N2O is almost completely soluble in fats and oils. […]

volumes dissolved (gas and dip solution) | Structure (SMILES)
approximately four | [N-]=[N+]=O [Example N2O, nitrous oxide]
approximately 4.5 volumes | O=C=O [CO2, Carbon dioxide]
